Assay results: the supplement of paper PMC10307832

Key:
Experiment in all cases: relative viability (nuclei count vs DMSO), 5 days (fraction); higher = more cells survive
[1] = compound: CN1CCN(CC1)C2=CC(=C(C=C2)NC3=NC=C4C(=N3)N(C5=CC=CC=C5C(=O)N4C)C)OC [XMD8-85] + CCNC(=O)c1noc(-c2cc(C(C)C)c(O)cc2O)c1-c1ccc(CN2CCOCC2)cc1 [Luminespib] (partner 0.01 µM)
Procedure, shortened: (§1)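 Nuclei were stained with Hoechst during a one-step fixation (final 0.05% Triton X-100, 1% formaldehyde, 1 ug/ml Hoechst) carried out 5 days after dosing, then counted on 4× images. The cells, lung cancer lines in 1536-well plates, had been dosed by pin tool the day after seeding with one drug alone or a fixed anchor-drug dose plus five library-drug doses (not always all listed) in √10 steps. Relative viability is the nuclei count in treated wells divided by that in vehicle wells, and each value is the median of duplicate plates.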

[2] = compound: O=C(O)C(Cc1ccccc1[N+](=O)[O-])=NNc1nc(-c2ccc(Cl)c(Cl)c2)cs1 (mixture of isomers) [4EGI-1] + NC(=O)Nc1cc(-c2cccc(F)c2)sc1C(=O)N[C@H]1CCCNC1 [AZD7762] (partner 0.2 µM)
Procedure, shortened: as §1

[3] = compound: CN1CCN(CC1)C2=CC(=C(C=C2)NC3=NC=C4C(=N3)N(C5=CC=CC=C5C(=O)N4C)C)OC [XMD8-85] + O=C(c1cc(Cc2n[nH]c(=O)c3ccccc23)ccc1F)N1CCN(C(=O)C2CC2)CC1 [Olaparib] (partner 8 µM)
Procedure, shortened: as §1

[4] = compound: O=C(O)C(Cc1ccccc1[N+](=O)[O-])=NNc1nc(-c2ccc(Cl)c(Cl)c2)cs1 (mixture of isomers) [4EGI-1] + CS(=O)(=O)N1CCN(Cc2cc3nc(-c4cccc5[nH]ncc45)nc(N4CCOCC4)c3s2)CC1 [Pictilisib] (partner 1 µM)
Procedure, shortened: as §1

Cell Line	relative viability ([1]; first compound 0.08 µM)	relative viability ([1]; first compound 0.253 µM)	relative viability ([1]; first compound 0.8 µM)	relative viability ([1]; first compound 2.53 µM)	relative viability ([1]; first compound 8 µM)	relative viability ([2]; first compound 0.5 µM)	relative viability ([2]; first compound 1.581 µM)	relative viability ([2]; first compound 5 µM)	relative viability ([2]; first compound 15.81 µM)	relative viability ([2]; first compound 50 µM)	relative viability ([3]; first compound 0.08 µM)	relative viability ([3]; first compound 0.253 µM)	relative viability ([3]; first compound 0.8 µM)	relative viability ([3]; first compound 2.53 µM)	relative viability ([3]; first compound 8 µM)	relative viability ([4]; first compound 0.5 µM)	relative viability ([4]; first compound 1.581 µM)	relative viability ([4]; first compound 5 µM)	relative viability ([4]; first compound 15.81 µM)	relative viability ([4]; first compound 50 µM)
201T	1.06	1.1	1.02	1.03	0.936	0.797	0.514	0.736	0.619	0.495	0.889	0.811	0.886	0.866	0.73	0.702	0.655	0.707	0.638	0.603
A549											0.192	0.371	0.306	0.234	0.227	0.456	0.454	0.603	0.433	0.0907
A-427	1.06	1.08	1.25	1.1	0.669	0.819		0.715	0.513	0.231	0.751	0.781	0.864	0.785	0.57	0.855	0.409	0.705	0.589	0.364
ABC-1			0.793	0.703	0.373	0.758		0.774	0.506	0.516	0.919	0.864	0.781	0.764	0.795	0.898	0.647	0.724	0.359	0.268
BEN	0.248	0.333	0.851	0.357	0.317	0.76	0.657	0.689	0.593	0.382	0.952	1.05	0.947	0.887	0.613	0.594	0.656	0.667	0.51	0.46
CAL-12T	0.315	0.652	0.339	0.333	0.216	0.643		0.649	0.518	0.366	0.704	0.721	0.776	0.628	0.583			0.431	0.347	0.225
COR-L23	0.504	0.589	0.963		0.487						0.369	0.319	0.421	0.302	0.236	0.96	0.549	0.827	0.491	0.135
COR-L 105	0.99	0.842	0.645		0.272						0.7		0.692	0.58	0.455	0.464	0.356	0.447	0.342	0.325
Calu-6											0.621	0.574	0.596	0.558	0.395	0.969	0.937	0.825	0.79	0.198
ChaGo-K-1	0.603	0.577	0.71	0.585	0.501	0.875	0.87	0.876	0.897	0.465	0.409	0.43	0.409	0.433	0.347	0.612		0.759	0.453	0.219
EBC-1											0.649	0.693	0.679	0.567	0.346	0.519	0.405	0.416	0.269	0.19
EKVX	0.911	0.905	0.588	0.877	0.876	0.812		0.649	0.546	0.656	0.756	0.83	0.998	0.898	0.901	0.443	0.371	0.442	0.262	0.405
EMC-BAC-2	1.26	1.24	1.21	1.28	0.951	1.36		1.17	1	0.599	0.498	0.465	0.487	0.477	0.417	0.642	0.492	0.579	0.514	0.502
EPLC-272H	0.266	0.373	0.629	0.389	0.186	0.264		0.239	0.151	0.0667	0.853	0.579	0.747	0.458	0.387	0.338	0.306	0.369	0.293	0.205
H3255	1.03	0.829	0.816	0.889	0.707	1.02	0.793	0.981	0.554	0.53	0.581	0.603	0.512	0.504	0.369	0.578	0.431	0.516	0.361	0.453
HARA	0.927	0.726	0.749	0.528	0.387	0.397	0.48	0.241	0.195	0.161	1.28	0.581	0.698	0.387	0.399	0.48	0.428	0.46	0.375	0.266
HCC-15	0.481	0.479	0.295	0.336	0.302	1.21	1.12	1.26	1.17	1.28	0.745	0.67	0.7	0.699	0.64	0.921	0.705	0.755	0.728	0.574
HCC-44	1.32	1.21	1.36	0.588	0.75	1.02	0.984	0.976	0.922	0.799	0.991	0.955	0.946	0.996	0.849	0.75	0.515	0.653	0.527	0.299
